{"source": "patent US20070254843A1", "about": "“Methods for treating bone associated diseases by the use of methionine aminopeptidase-2 inhibitors” (Praecis Pharmaceuticals Incorporated, priority 2006, published 2007)", "key": {"PG-PS-induced arthritis": {"system": "PG-PS-induced arthritis", "assay": "Microfocal computed tomography of hind joints in rat PG-PS arthritis model", "format": "in vivo", "description": "Microfocal computed tomography. All specimens were scanned on a Scanco Medical AG μCT 40 system. Images were obtained with an isotropic voxel resolution of 20 microns. A matrix size of 1024×1024 with 1000 projections was utilized for all scans. A total of 1836 slices were scanned for each specimen (the number of slices scanned was determined by the length of the scan needed to cover the entire ankle including the distal tibia). The scan time per specimen was approximately 2.6 hours. The images were then volume rendered using a fixed threshold (at two different thresholds: 255 and 140). The total bone volume and BMD were calculated over the same regions of all the specimens. Micro-CT was performed at Scanco USA, Incorporated.\nFinally, the activity of the MetAP-2 inhibitor on the structural preservation of hind joints in rats with established disease was investigated.\nThe ankles including the distal tibia were scanned using a Scanco Medical AG μCT 40 system (threshold: 255), and the total bone volume and BMD were calculated over the same regions of all specimens."}, "HFLS-R^A": {"system": "HFLS-R^A", "details": "100 nM; cited from earlier work"}, "[1]": {"details": "PG-PS arthritis, 10 mg/kg, threshold 255"}}, "data": [{"smiles": "CO[C@@H]1[C@H](OC(=O)N[C@@H](C(N)=O)C(C)C)CC[C@]2(CO2)[C@H]1[C@@]1(C)O[C@@H]1CC=C(C)C", "note": "[MetAP-2 inhibitor, (1-Carbamoyl-2-methyl-propyl)-carbamic acid-(3R,4S,5S,6R)-5-methoxy-4-[(2R,3R)-2-methyl-3-(3-methyl-but-2-enyl)-oxiranyl]-1-oxa-spiro[2,5]oct-6-yl ester]", "values": [{"measurement": "structural integrity of hind joints, three-dimensional micro-CT images", "setting": "PG-PS-induced arthritis; 10 mg/kg p.o. qod, versus vehicle", "result": "protected the structural integrity of the joints and prevented focal bone erosions"}, {"measurement": "BMD", "setting": "PG-PS-induced arthritis; [1]", "result": "1087 ± 17.44", "unit": "mg HA/ccm"}, {"measurement": "Bone Volume (Vox-BV)", "setting": "PG-PS-induced arthritis; [1]", "result": "213.8 ± 5.23"}, {"measurement": "induction of apoptosis in HFLS-RA", "setting": "HFLS-R^A", "result": "did not induce apoptosis"}]}]}
